# “Also recorded” adds a separate entry of the source.
# Tests used:
# [1] = tested on: EMT-6 (breast); experiment: syngeneic subcutaneous tumor model EMT-6; assay type: in vivo, mouse; conditions: RIP1i = Example 78 40 mg/kg p.o. BID x up to 21 days
# Procedure: (§1) The efficacy of RIP1 inhibition was tested in 12 different murine (6-8 week old) syngeneic subcutaenous tumor models. RIP1 inhibition was tested as a single agent in all models, with anti-PD1 combination arms added to the five of the final models.
# (§2) T and C are the mean tumor volume of the treated and control groups, respectively, on a given day. • 2) Tumor and plasma collection at study end for further investigation.
# (§3) The 12 syngenic cell lines were maintained in vitro with different medium (indicated in Table C) at 37° C. in an atmosphere of 5% CO2 in air. The tumor cells were routinely subcultured twice weekly. The cells in an exponential growth phase were harvested and counted for tumor inoculation.
# (§4) Each mouse was inoculated subcutaneously with tumor cells in 0.1 mL of PBS for tumor development. The treatments were started when the mean tumor size reached approximately 80-120 mm^3 (around 100 mm^3).
# [2] = tested on: Diet-induced obese, male mice C57Bl/6J; experiment: obesity, high fat diet-fed mice; assay type: in vivo, mouse
# From the text: Inflammation is known to be a contributing factor in the pathogenesis of diabetes and obesity (Chen. et. al., International Journal of Endocrinology (2015)). We therefore explored the effect of blocking RIPK1 kinase activity on body weight in mice made obese by chronic feeding of a high fat diet (HFD). Diet-induced obese, male mice C57Bl/6J (Jackson Labs Stock#380050) arrived at 22 weeks of age, with average body weight of 40 g and acclimated for one week and maintained on HFD. Mice were then acclimated to oral gavage with water for 7 days before study start. Thereafter mice received RIPK 1 inhibitor (50 mg/kg, bid, n=9) or vehicle (bid, n=9) for 19 days. Food intake was measured twice weekly and body weight was measured daily throughout the study.
# [3] = tested on: MC38 (colon); experiment: syngeneic subcutaneous tumor model MC38; assay type: in vivo, mouse; conditions: RIP1i = Example 78 40 mg/kg p.o. BID, alone or with anti-PD1
# Procedure: as §1, §2, §3, §4
# [4] = tested on: Pan02 (pancreatic); experiment: syngeneic subcutaneous tumor model Pan02; assay type: in vivo, mouse; conditions: Pan02, PG21; RIP1i = Example 78 40 mg/kg p.o. BID, alone or with anti-PD1
# Procedure: as §1, §2, §3, §4
# [5] = tested on: Sharpin-deficient mice (cpdm); experiment: Sharpin-deficient mouse model of TNF-dependent dermatitis; assay type: in vivo; conditions: food-based 100 or 10 mg/kg/day
# Procedure: Sharpin-deficient mice (cpdm) develop a spontaneous and severe TNF- and RIPK1-dependent dermatitis and multi-organ immunopathology around 6-8 weeks of age (S. B. Berger et al., Journal of Immunology, 192(12):5476-5480, (2014)). Mice were dosed with RIP1 inhibitors at the time of weaning (3-4 weeks of age) prior to the development of dermatitis lesions or therapeutically after the development of dermatitis lesions (about 6 weeks of age) using a food-based dosing regimen, such that mice (4-7 mice per group) received on average 100 mg/kg/day or 10 mg/kg/day of RIP1 inhibitor in diet or control diet. […] The character of the lesion was categorized according the following, in order of increasing severity, 0=none, 1=excoriation only or one small punctuated crust (≤2 mm), 2=multiple, small punctuate crusts or coalescing crust (>2 mm), 3=erosion or ulceration. The regions were identified as: Region 1: the head cranial to the medial pinna attachment and/or lesions affecting the mandible cranial to the sternum, Region 2: inner and outer pinna, dorsal cervical region caudal to the medial pinna attachment, dorsal and ventral thorax, and thoracic limbs, Region 3: any region caudal to the ribcage. A score for the regions affected was categorized per the following: 0=none; 1=Region 2 or 3; 2=Region 2 and 3; 3=Region 1+/−other affected regions. […]
# [6] = tested on: MBT2 (bladder); experiment: syngeneic subcutaneous tumor model MBT2; assay type: in vivo, mouse; conditions: RIP1i = Example 78 40 mg/kg p.o. BID, alone or with anti-PD1
# Procedure: as §1, §2, §3, §4
# [7] = tested on: CT26 (colon); experiment: syngeneic subcutaneous tumor model CT-26; assay type: in vivo, mouse; conditions: RIP1i = Example 78 40 mg/kg p.o. BID x up to 21 days
# Procedure: as §1, §2, §3, §4
# [8] = tested on: B16F10 (melanoma); experiment: syngeneic subcutaneous tumor model B16F10; assay type: in vivo, mouse; conditions: RIP1i = Example 78 40 mg/kg p.o. BID x up to 21 days
# Procedure: as §1, §2, §3, §4
# [9] = tested on: Renca (renal); experiment: syngeneic subcutaneous tumor model Renca; assay type: in vivo, mouse; conditions: RIP1i = Example 78 40 mg/kg p.o. BID x up to 21 days
# Procedure: as §1, §2, §3, §4
# [10] = tested on: A20 (B lymphoma); experiment: syngeneic subcutaneous tumor model A20; assay type: in vivo, mouse; conditions: RIP1i = Example 78 40 mg/kg p.o. BID x up to 21 days
# Procedure: as §1, §2, §3, §4
# [11] = tested on: db/db mice; experiment: glucose homeostasis in db/db mice; assay type: in vivo, mouse; conditions: 100 mg/kg/day in chow
# From the text: We therefore investigated the ability of our small molecule RIPK1 inhibitor to improve glucose homeostasis in a diabetic animal model. Mice genetically deficient for the leptin receptor (db/db mice; Jackson Labs, BKS.Cg-Dock7m+/+Leprdb/J) are a widely used animal model of insulin resistance and diabetes. In our study, 4-week old male db/db mice were acclimated for a period of one week. At this point, when the mice were 5 weeks of age, the study was started. Mice were then divided into two group (n=10/group) and baseline measurements of non-fasted blood glucoses (using a glucometer) and body weight were taken. After baseline measurements, one group of mice was fed chow containing RIPK1 inhibitor (100 mg/kg/day, n=10) and the other remained on normal chow (n=10). Animals remained on these diets for 6 weeks. Additional measurements of non-fasted blood glucose and body weight were taken 2 and 4 weeks after study start. At week 8, mice were fasted overnight (16 hours) and fasted blood glucose and body weight were measured on the following day.
# [12] = tested on: LL/2 (Lewis lung); experiment: syngeneic subcutaneous tumor model LL/2; assay type: in vivo, mouse; conditions: RIP1i = Example 78 40 mg/kg p.o. BID x up to 21 days
# Procedure: as §1, §2, §3, §4
# [13] = tested on: RM-1(prostate); experiment: syngeneic subcutaneous tumor model RM-1; assay type: in vivo, mouse; conditions: RIP1i = Example 78 40 mg/kg p.o. BID, alone or with anti-PD1
# Procedure: as §1, §2, §3, §4
# [14] = tested on: B16BL6 (melanoma); experiment: syngeneic subcutaneous tumor model B16BL6; assay type: in vivo, mouse; conditions: RIP1i = Example 78 40 mg/kg p.o. BID, alone or with anti-PD1
# Procedure: as §1, §2, §3, §4
# [15] = tested on: H22 (hepatoma); experiment: syngeneic subcutaneous tumor model H-22; assay type: in vivo, mouse; conditions: RIP1i = Example 78 40 mg/kg p.o. BID x up to 21 days
# Procedure: as §1, §2, §3, §4
compound,measurement,setting,value
"N#Cc1cc(N2CCC(C(=O)N3N=CC[C@H]3c3cc(F)cc(F)c3)CC2)ncn1 [Example 78, (S)-6-(4-(5-(3,5-difluorophenyl)-4,5-dihydro-1H-pyrazole-1-carbonyl)piperidin-1-yl)pyrimidine-4-carbonitrile]",Mean tumor growth inhibition (TGI) at model termination,[1],21%
same,body weight,"[2]; 50 mg/kg bid PO for 19 days, versus vehicle",did not gain weight
same,food intake,"[2]; 50 mg/kg bid PO, day 2 and day 5, versus vehicle",initially reduced their food intake
same,Mean tumor growth inhibition (TGI) at model termination,[3],−16%
same,Mean tumor growth inhibition (TGI) at model termination,[4],PG21: 46%
same,development of severe dermatitis,[5]; pre-dosing from weaning (3-4 weeks of age),complete protection from the development of severe dermatitis
same,established dermatitis,[5]; therapeutic dosing after development of lesions (about 6 weeks of age),rescued established dermatitis
same,Mean tumor growth inhibition (TGI) at model termination,[6],−4%
same,Mean tumor growth inhibition (TGI) at model termination,[7],19%
same,Mean tumor growth inhibition (TGI) at model termination,[8],20%
same,Mean tumor growth inhibition (TGI) at model termination,[9],19%
same,Mean tumor growth inhibition (TGI) at model termination,[10],0.6%
same,fasted blood glucose,"[11]; week 8, fasted overnight (16 hours), versus normal chow",improves fasted blood glucose; also recorded: significantly lower
same,non-fasted (fed) blood glucose,"[11]; weeks 2 and 4, versus normal chow",improves fed blood glucose over time; also recorded: Reduced non-fasted blood glucose at weeks 2 and 4
same,Mean tumor growth inhibition (TGI) at model termination,[12],22%
same,Mean tumor growth inhibition (TGI) at model termination,[13],−8%
same,Mean tumor growth inhibition (TGI) at model termination,[14],16%
same,Mean tumor growth inhibition (TGI) at model termination,[15],19%

# From patent US20190345138A1, “HETEROCYCLIC AMIDES AS KINASE INHIBITORS” (GlaxoSmithKline Intellectual Property Development Limited, priority 2016, published 2019)
